Data published in patent publication EP0393604B1, “6,11-Dihydro-5H-pyrido(2,3-b)(1,5,)benzodiazepin-5-ones and thiones and their use in the prevention or treatment of AIDS” (priority 1989, dated 1990).
Like-named read-outs stand apart in the source and are kept apart here.

Columns and labels:
HIV-1 RT = target: T1, HIV-1 RT (Human immunodeficiency virus type 1 group M subtype B, UniProt P03367); assay: Reverse Transcriptase (RT) Assay: inhibition of RNA-dependent DNA polymerase activity; assay type: biochemical; details: for inhibition at 10 µg/mL: read-out: RT Inhibition % @ 10µg/ml
T1 construct: Reverse transcriptase enzyme from the LAV strain of Human Immunodeficiency Virus (HIV-1) (1) was isolated from the bacterial strain JM109; made in house; host or cells: E. coli JM109, clone pBRTprt1+ in vector pIBI21, lac promoter, IPTG induction
Source text: Utilizing the Reverse Transcriptase (RT) Assay descibed below, compounds can be tested for their ability to inhibit the RNA-dependent DNA polymerase activity of HIV-1 RT. Certain specific compounds of formula I described in the Examples which appear below, were so tested. The above-described compounds of formula IA were also so tested.
Among the enzymes for which Human Immunodeficiency Virus (HIV-1) encodes is a reverse transcriptase (1), so-named because it transcribes a DNA copy from an RNA template. This activity can be quantitatively measured in a cell-free enzyme assay which has been previously described (2), and is based upon the observation that reverse transcriptase is able to use a synthetic template [poly r(C) primed with oligo d(G)] to transcribe a radio-labelled, acid-precipitable DNA strand utilizing ^3H-dGTP as a substrate.
Reverse transcriptase enzyme from the LAV strain of Human Immunodeficiency Virus (HIV-1) (1) was isolated from the bacterial strain JM109 (3) expressing the DNA clone pBRTprt1+ (2) which is under the control of the lac promoter in the expression vector pIBI21 (4). An overnight culture grown in 2XYT medium (37°C, 225 rpm) (5) supplemented with 100 µg/ml ampicillin for positive selection is inoculated at a 1:40 dilution into M9 medium supplemented with 10µg/ml thiamine, 0.5% casamino acids, and 50 µg/ml ampicillin (5). The culture is incubated (37°C, 225 rpm) until it reaches an OD540 of 0.3-0.4. At that time the repressor inhibitor IPTG (isopropyl b-D-thiogalactopyranoside) is added to 0.5mM and the mixture is incubated for 2 additional hours. Bacteria are pelleted, resuspended in a 50mM Tris, 0.6mM EDTA, 0.375M NaCl buffer and digested by the addition of lysozyme (1mg/ml) for 30 minutes on ice. The cells are lysed by the addition of 0.2% NP-40 and brought to 1M NaCl.
After removal of the insoluble debris by centrifugation, the protein is precipitated by the addition of 3 volumes of water-saturated ammonium sulfate. The enzyme is pelleted, resuspended in RT buffer (50mM Tris pH 7.5. 1mM EDTA, 5mM DTT, 0.1% NP-40, 0.1M NaCl, and 50% glycerol), and stored at -70°C for further use.
The 2X concentrated stock reaction mixture is aliquoted and stored at -20°C. The mixture is stable and thawed for use in each assay. This enzyme assay has been adapted to a 96 well microtiter plate system, and has been previously described (6). Tris buffer (50 mM, pH 7.4), vehicle (solvent diluted to match the compound dilution), or compounds in vehicle are dispensed into 96-well microtiter plates (10µl/well: 3 wells/compound). The HIV-1 RT enzyme is thawed and diluted in 50mM Tris pH 7.4 so that fifteen µl of diluted enzyme contain 0.001 Unit (one unit is that amount of enzyme to transform 1 micromole of substrate per minute at 25°C) and 15µl are dispensed per well. Twenty µl of 0.12 - 0.5M EDTA are added to the first three wells of the microtiter plate. EDTA chelates the Mg^++ present and prevents reverse transcription. This group serves as background polymerization which is subtracted from all other groups. Twenty-five ul of the 2X reaction mixture are added to all wells and the assay is allowed to incubate at room temperature for 60 minutes. The assay is terminated by precipitating the DNA in each well with 50µl of trichloracetic acid (TCA) (10% w/v) in sodium pyrophosphate (1% w/v). The microtiter plate is incubated for 15 minutes at 4°C and the precipitate is fixed onto #30 glass fiber paper (Schleicher & Schuell) using a Skatron semi-automatic harvester. The filters are then washed with additional TCA (5%) containing sodium pyrophosphate (1%), rinsed with aqueous ethanol (70%), dried, and transferred to scintillation vials (6). Each vial receives 2 mls of scintillation cocktail and is counted in a Beckman beta counter. […]

[1] = system: HTLV-IIIB strain of HIV-1; assay: Human T-Cell Culture Assay (syncytia formation in c8166 cells); assay type: cell-based; details: Human immunodeficiency virus 1, IIIB, 96 h, syncytia four days after virus challenge
Procedure: In order to confirm that compounds which are active in the RT Assay also have the ability to inhibit HIV-1 replication in a living system, several compounds of formula I were also tested in the Human T-Cell Culture Assay described below.
Formation of syncytia is a feature of in vitro cultures of CD4+ T-cells infected with HIV-1. In this assay, T-cells are treated with a putative replication inhibiting compound and then infected with HIV-1. After incubation the culture is checked for the formation of syncytia. The absence or reduction is the number of syncytia is used as a measure of the test compound's ability to inhibit HIV replication.
The target cells, designated c8166, are a subclone of human lymphoma cells of T-cell origin and are established at an initial density of 5x10^4 per 100 ul in RPMI 1640 (+ 10% fetal bovine serum) culture medium in 96 well flat bottom plates. A selected amount of test compound, dissolved in DMSO is included. After 24 hours, 50-100 TCID50's (the dose that results in induced effect in 50% of test cultures) of the HTLV-IIIB strain of HIV-1 (2) are innoculated into each culture. Control cultures receive compound or virus only. Four days after virus challenge, cultures are visually examined for the frequency and distribution of virus-induced giant cell syncytia. The percent inhibition by the test compound is determined by comparison with control values. Confirmation of the presence or absence of virus replication is accomplished by harvesting the cell free culture fluids from all experimental groups to determine the present or absence of infectious progeny through the induction of syncytia formation in secondary human T-cell cultures after 3 days.

[2] = MTT Assay for Cellular Cytotoxicity; assay type: cell-based, human; details: human, H9 cells, five days incubation, read-out: Cytotoxity Assay (EC50)
Procedure: (§1) In order to roughly assess the cytotoxicity of the compounds of formula 1, several such compounds were tested in the MTT Cellular Cytotoxicity Assay described below.
(§2) The MTT [3-(4,5-dimethylthiazol-2yl)-2,5-diphenyl tetrazolium bromide) assay is based on cleavage of tetrazolium bromide by metabolically active cells, resulting in a highly quantitative blue color. This assay has been previously described (1) but has been optimized for the purposes of the testing reported herein.
(§3) Cells (100µl) are plated in microtest plate wells at a concentration of 10^5 cells per ml in the presence of varying concentrations of inhibitor. The cells are incubated at 37°C in a humidified CO2 incubator. […] After 4 hours additional incubation at 37°C, 60µl of Triton-X is added to each well and thoroughly mixed to aid the solubilization of the crystals. Absolute ethanol (5µl) is added to each well and the resulting mixture is incubated for 30 minutes at 60°C and immediately read on a plate reader (Dynatech) at a wavelength of 570nm.
(§4) Data from this assay are used to generate a nonlinear regression analysis, which yields the EC50.

H9 cell line = assay: MTT Assay for Cellular Cytotoxicity; assay type: cell-based, human; details: H9 cells, five days incubation, unit inferred, 7200 min, read-out: Cytotoxity Assay (EC50)
Procedure: as §1, §2, §3, §4

[3] = 10µg/ml, Table I, compounds of formula I

inhibition at 10 µg/mL (HIV-1 RT; [3]) [%] | Compound | CC50 at 120 h [2] [µM] | further results
97 | CCN1c2ccccc2N(C)C(=O)c2cccnc21 [Example 2, 6,11-Dihydro-11-ethyl-6-methyl-5H-pyrido[2,3-b][1,5]benzodiazepin-5-one] | 80 | inhibition at 4 µM ([1]; @ 4µM): 100%
79 | CN1C(=O)c2cccnc2N(C)c2cc(C(F)(F)F)ccc21 [Example 4, 6,11-Dihydro-6,11-dimethyl-9-(trifluoromethyl)-5H-pyrido[2,3-b][1,5]benzodiazepin-5-one] | 49 | –
94 | CC(C)N1c2ccccc2N(C)C(=O)c2cccnc21 [Example 5, 6,11-Dihydro-6-methyl-11-methylethyl-5H-pyrido[2,3-b][1,5]benzodiazepin-5-one] | 50 | inhibition at 19 µM ([1]; @19µM): 100%
39 | Cc1ccc2c(n1)N(C)c1cc(C)c(C)cc1N(C)C2=O [Example 15, 6,11-Dihydro-2,6,8,9,11-pentamethyl-5H-pyrido[2,3-b][1,5]benzodiazepin-5-one] | – | CC50 at 120 h ([2]; unit inferred): 18 µM
– | Mixture of 6,11-Dihydro-2,4,6,8,11-and 6,11-dihydro-2,4,6,9,11- pentamethyl-5H-pyrido[2,3-b][1,5]benzodiazepin-5-one [Example 17] | – | RT Inhibition % @ 10µg/ml (HIV-1 RT; [3]): 49%; CC50 (H9 cell line): 9 µM
92 | Cc1cc2c(cc1C)N(C)c1ncccc1C(=O)N2C [Example 9, 6,11-Dihydro-6,8,9,11-tetramethyl-5H-pyrido[2,3-b][1,5]-benzodiazepin-5-one] | 4 | –
90 | CC(=O)N1c2cc(C)c(C)cc2N(C)C(=O)c2cccnc21 [Example 19, 11-Acetyl-6,11-dihydro-6,8,9-trimethyl-5H-pyrido[2,3-b][1,5]benzodiazepin-5-one] | – | CC50 at 120 h ([2]; unit inferred): 85 µM
55 | CN1C(=O)c2cccnc2N(C)c2ccc(Cl)cc21 [Example 8, 8-Chloro-6,11-dihydro-6,11-dimethyl-5H-pyrido[2,3-b][1,5]benzodiazepin-5-one] | 37 | –
– | CCN1c2ccccc2N(C)C(=S)c2cccnc21 [Example 22, 6,11-Dihydro-11-ethyl-6-methyl-5H-pyrido[2,3-b][1,5]benzodiazepin-5-thione] | – | inhibition at 10 µg/mL (HIV-1 RT): 100%; inhibition at 3 µM ([1]; @3µM): 100%
